In US20260000694A1, “METHODS AND COMPOSITIONS RELATED TO PREBIOTIC FORMULATIONS USEFUL IN PROMOTING UROGENITAL HEALTH” (KIMBERLY-CLARK WORLDWIDE, INC., priority 2022, published 2026):
Several values for one entry are separate records, joined by “and”; a condition that tells them apart may be missing. Equal values may be shown once.

Tests used:
Type in all cases: cell-based
[1] = system: Lactobacillus crispatus KC18-1173-1; experiment: Competition (co-culture) assay: recovery of L. crispatus after exposure to prebiotics; conditions: 48 hours, one value per replicate; for L. crispatus Δ on MRS: change vs start, background growth in media without prebiotic subtracted, co-culture; for L. crispatus Recovered on MRS: co-culture with S. anginosus in API 50 CHL media with prebiotic (% w/v in label), anaerobic 37° C.
Description: (§1) The methods used herein were adapted from Vongsa et al. The method used in this particular example is as follows: • 1. A stock was created using a single prebiotic, a prebiotic mixture, or the positive control (glucose) in API 50 CHL media (Biomerieux, Marcy-l'Étoile, France). API 50 CHL media containing minimal amounts of carbon for growth and bromocresol purple as a pH indicator of fermentation. The stock media was filter-sterilized with a 0.22 μM filter and store at 4-6° C. • 2. From a freezer stock, the bacteria were subcultured twice into De Man, Rogosa, and Sharpe (MRS) broth (BD Difco, Becton Dickinson, Franklin Lakes, NJ) and incubated at 37° C. anaerobically overnight until stationary. • 3. The second MRS broth subculture was plated onto an MRS agar plate for Lactobacillus crispatus KC18-1173-1 or blood agar for Streptococcus anginosus KC18-1131-3B and incubated at 37° C. anaerobically overnight until stationary. • 4. A bacterial suspension was created for each bacterium using a sterile tipped swab to transfer colonies into API suspension media (Biomerieux, Marcy-l'Étoile, France) to reach the turbidity of a 2 MacFarland standard. • 5. The starting culture was enumerated. • 6. 9.8 mL of the prebiotic media was added into a sterile 15 mL conical tube. • 7. 100 μL of each prepared bacterial suspension was added to the media, and it was incubated anaerobically at 37° C. for 48 hours. • 8. 100 μL were harvested from each tube containing the bacteria and prebiotic media, it was serially diluted, and plated onto MRS agar and tryptic soy agar (TSA). • 9. The bacteria were enumerated on MRS agar (both L. crispatus and S. anginosus). Small colonies were counted as S. anginosus, and large colonies were counted as L. crispatus. • 10. S. anginosus was enumerated on TSA plates. […] Background growth of bacteria in the negative control (CHL media without prebiotics) was subtracted from the growth recovered in the presence of the prebiotic mixture. • 12. Statistical analysis was performed using Student's t-test. The significance level was set at p<0.05.

[2] = system: Lactobacillus crispatus KC18-1173-1 to Streptococcus anginosus KC18-1131-3B; experiment: Competition (co-culture) assay: ratio of L. crispatus to S. anginosus recovered; conditions: average CFU/mL L. crispatus on MRS divided by average CFU/mL S. anginosus on TSA, 48 hours
Description: as §1

[3] = system: Streptococcus anginosus KC18-1131-3B; experiment: Competition (co-culture) assay: recovery of S. anginosus after exposure to prebiotics; conditions: 48 hours, one value per replicate; for S. anginosus Δ on MRS / S. anginosus Δ on TSA: change vs start, background growth in media without prebiotic subtracted, co-culture; for S. anginosus Recovered on MRS / S. anginosus Recovered on TSA: co-culture with L. crispatus in API 50 CHL media with prebiotic (% w/v in label), anaerobic 37° C.
Description: as §1

`OC[C@H]1O[C@@H](O[C@@H]2[C@@H](CO)OC(O)(CO)[C@H]2O)[C@H](O)[C@@H](O)[C@H]1O` (mixture of isomers) [Lactulose (2.0), Lactulose] was tested, and the “L. crispatus Δ on MRS” value [1] was 2.38 Log CFU/mL and 2.80 Log CFU/mL and 2.58 Log CFU/mL and 2.60 Log CFU/mL and 2.69 Log CFU/mL, the “L. crispatus Recovered on MRS” value [1] was 7.74 Log CFU/mL and 8.10 Log CFU/mL and 8.28 Log CFU/mL and 8.30 Log CFU/mL and 8.11 Log CFU/mL and the “Ratio (L. crispatus/S. anginosus)” value [2] was 37,556. For the same compound, the “S. anginosus Δ on MRS” value [3] was −6.73 Log CFU/mL and −2.23 Log CFU/mL and −2.53 Log CFU/mL and −6.61 Log CFU/mL and −6.08 Log CFU/mL, the “S. anginosus Δ on TSA” value [3] was −3.85 Log CFU/mL and −2.17 Log CFU/mL and −3.70 Log CFU/mL and −3.74 Log CFU/mL and −3.67 Log CFU/mL and the “S. anginosus Recovered on MRS” value [3] was 0.00 Log CFU/mL (3×) and 4.11 Log CFU/mL and 3.40 Log CFU/mL. The “S. anginosus Recovered on TSA” value [3] was 2.85 Log CFU/mL and 4.23 Log CFU/mL and 2.00 Log CFU/mL and 2.74 Log CFU/mL and 2.78 Log CFU/mL.

For `OC[C@H]1O[C@@](CO)(OC[C@@]2(O[C@H]3O[C@H](CO)[C@@H](O)[C@H](O)[C@H]3O)O[C@H](CO)[C@@H](O)[C@@H]2O)[C@@H](O)[C@@H]1O` [1-Kestose (2.0), 1-Kestose], the “L. crispatus Δ on MRS” value [1] was 2.59 Log CFU/mL and 3.60 Log CFU/mL and 2.30 Log CFU/mL and 1.95 Log CFU/mL and 2.74 Log CFU/mL, the “L. crispatus Recovered on MRS” value [1] was 7.95 Log CFU/mL and 8.90 Log CFU/mL and 8.00 Log CFU/mL and 7.65 Log CFU/mL and 8.16 Log CFU/mL and the “Ratio (L. crispatus/S. anginosus)” value [2] was 976,001. For the same compound, the “S. anginosus Δ on MRS” value [3] was −6.61 Log CFU/mL and −6.08 Log CFU/mL and −5.03 Log CFU/mL and −3.64 Log CFU/mL and −3.63 Log CFU/mL, the “S. anginosus Δ on TSA” value [3] was −3.74 Log CFU/mL and −6.45 Log CFU/mL and −4.15 Log CFU/mL and −4.00 Log CFU/mL (2×) and the “S. anginosus Recovered on MRS” value [3] was 0.00 Log CFU/mL (2×) and 1.70 Log CFU/mL and 2.70 Log CFU/mL and 2.30 Log CFU/mL. The “S. anginosus Recovered on TSA” value [3] was 2.74 Log CFU/mL and 0.00 Log CFU/mL and 2.54 Log CFU/mL and 2.40 Log CFU/mL and 1.70 Log CFU/mL.

For `OC[C@@H](O)[C@@H](O[C@@H]1O[C@H](CO)[C@H](O)[C@H](O)[C@H]1O)[C@H](O)[C@@H](O)CO` [D-Lactitol (2.0), D-Lactitol], the “L. crispatus Δ on MRS” value [1] was 0.77 Log CFU/mL and 0.66 Log CFU/mL, the “L. crispatus Recovered on MRS” value [1] was 5.90 Log CFU/mL and 6.74 Log CFU/mL and the “Ratio (L. crispatus/S. anginosus)” value [2] was 0. For the same compound, the “S. anginosus Δ on MRS” value [3] was 0.75 Log CFU/mL and 0.69 Log CFU/mL, the “S. anginosus Δ on TSA” value [3] was 0.58 Log CFU/mL and 0.52 Log CFU/mL and the “S. anginosus Recovered on MRS” value [3] was 7.45 Log CFU/mL and 7.54 Log CFU/mL. For the same compound, the “S. anginosus Recovered on TSA” value [3] was 7.43 Log CFU/mL and 7.65 Log CFU/mL.

In the case of `OC[C@@H](O)[C@@H](O[C@H]1O[C@H](CO)[C@@H](O)[C@H](O)[C@H]1O)[C@H](O)[C@@H](O)CO` [Maltitol (2.0), Maltitol], the “L. crispatus Δ on MRS” value [1] is reported as 0.35 Log CFU/mL and −0.08 Log CFU/mL, the “L. crispatus Recovered on MRS” value [1] is reported as 5.48 Log CFU/mL and 6.00 Log CFU/mL and the “Ratio (L. crispatus/S. anginosus)” value [2] is reported as 0. The “S. anginosus Δ on MRS” value [3] was −0.12 Log CFU/mL and −0.37 Log CFU/mL, the “S. anginosus Δ on TSA” value [3] was 0.41 Log CFU/mL and 0.47 Log CFU/mL and the “S. anginosus Recovered on MRS” value [3] was 6.58 Log CFU/mL and 6.48 Log CFU/mL. The “S. anginosus Recovered on TSA” value [3] was 7.26 Log CFU/mL and 7.60 Log CFU/mL.

For `O=C(CO)[C@@H](O)[C@H](O)[C@H](O)CO[C@H]1O[C@H](CO)[C@@H](O)[C@H](O)[C@H]1O` [Palatinose ™ (2.0), 6-O-α-D-glucopyranosyl-D-fructose], the “L. crispatus Δ on MRS” value [1] was 2.10 Log CFU/mL and 2.30 Log CFU/mL and 2.77 Log CFU/mL and 3.24 Log CFU/mL and 1.90 Log CFU/mL, the “L. crispatus Recovered on MRS” value [1] was 7.93 Log CFU/mL and 8.00 Log CFU/mL and 8.19 Log CFU/mL and 8.37 Log CFU/mL and 7.98 Log CFU/mL and the “Ratio (L. crispatus/S. anginosus)” value [2] was 2,681. For the same compound, the “S. anginosus Δ on MRS” value [3] was −1.83 Log CFU/mL and −2.08 Log CFU/mL and −2.03 Log CFU/mL and −1.82 Log CFU/mL and −1.69 Log CFU/mL, the “S. anginosus Δ on TSA” value [3] was −1.48 Log CFU/mL and −2.41 Log CFU/mL and −2.00 Log CFU/mL and −2.42 Log CFU/mL and 2.39 Log CFU/mL and the “S. anginosus Recovered on MRS” value [3] was 4.78 Log CFU/mL and 4.00 Log CFU/mL and 4.70 Log CFU/mL and 4.88 Log CFU/mL and 5.16 Log CFU/mL. For the same compound, the “S. anginosus Recovered on TSA” value [3] was 5.00 Log CFU/mL and 4.04 Log CFU/mL and 4.70 Log CFU/mL and 4.53 Log CFU/mL and 4.74 Log CFU/mL.

`CO[C@H]1O[C@H](CO)[C@@H](O)[C@H](O)[C@H]1O` [α-Methyl-D-Glucoside (2.0), α-Methyl-D-Glucoside] was tested, and the “L. crispatus Δ on MRS” value [1] was 1.90 Log CFU/mL and 1.39 Log CFU/mL and 0.70 Log CFU/mL, the “L. crispatus Recovered on MRS” value [1] was 7.20 Log CFU/mL and 6.52 Log CFU/mL and 6.78 Log CFU/mL and the “Ratio (L. crispatus/S. anginosus)” value [2] was 0. For the same compound, the “S. anginosus Δ on MRS” value [3] was −0.33 Log CFU/mL and 0.45 Log CFU/mL and 0.55 Log CFU/mL, the “S. anginosus Δ on TSA” value [3] was 0.34 Log CFU/mL and 0.62 Log CFU/mL and 0.41 Log CFU/mL and the “S. anginosus Recovered on MRS” value [3] was 5.60 Log CFU/mL and 7.15 Log CFU/mL and 7.40 Log CFU/mL. For the same compound, the “S. anginosus Recovered on TSA” value [3] was 6.04 Log CFU/mL and 7.47 Log CFU/mL and 7.54 Log CFU/mL.
